Data published in PubChem BioAssay AID1645863 (Buhrlage Lab, Dana-Farber Cancer Institute and Novartis …, 2021).
Calls of active or inactive are those of the source. No rule for the calls is given here. Where a SMILES comes first, the peptide text is derived from it. Bridges are numbered along the chain shown (N, C = ends). The star is where a group is joined. ξ: configuration not given here. Pentadecanoyl(3ξ-OH,15-Gua) = N=C(N)NCCCCCCCCCCCCC(O)CC(=O)*

Target: Ubiquitin carboxyl-terminal hydrolase 10 (Homo sapiens) (UniProt Q14694)
Assay: primary hit verification, biochemical, ubiquitin-specific protease 10 deubiquitylase inhibitors, concentration-effect titration (AID 1645863);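 also: potency values describe inhibition of USP10 cleavage of a fluorogenic ubiquitin substrate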
Conditions: USP10 deubiquitinase enzymatic assay

Sequence of Ubiquitin carboxyl-terminal hydrolase 10 (Homo sapiens) (Q14694 whole entry, looked up): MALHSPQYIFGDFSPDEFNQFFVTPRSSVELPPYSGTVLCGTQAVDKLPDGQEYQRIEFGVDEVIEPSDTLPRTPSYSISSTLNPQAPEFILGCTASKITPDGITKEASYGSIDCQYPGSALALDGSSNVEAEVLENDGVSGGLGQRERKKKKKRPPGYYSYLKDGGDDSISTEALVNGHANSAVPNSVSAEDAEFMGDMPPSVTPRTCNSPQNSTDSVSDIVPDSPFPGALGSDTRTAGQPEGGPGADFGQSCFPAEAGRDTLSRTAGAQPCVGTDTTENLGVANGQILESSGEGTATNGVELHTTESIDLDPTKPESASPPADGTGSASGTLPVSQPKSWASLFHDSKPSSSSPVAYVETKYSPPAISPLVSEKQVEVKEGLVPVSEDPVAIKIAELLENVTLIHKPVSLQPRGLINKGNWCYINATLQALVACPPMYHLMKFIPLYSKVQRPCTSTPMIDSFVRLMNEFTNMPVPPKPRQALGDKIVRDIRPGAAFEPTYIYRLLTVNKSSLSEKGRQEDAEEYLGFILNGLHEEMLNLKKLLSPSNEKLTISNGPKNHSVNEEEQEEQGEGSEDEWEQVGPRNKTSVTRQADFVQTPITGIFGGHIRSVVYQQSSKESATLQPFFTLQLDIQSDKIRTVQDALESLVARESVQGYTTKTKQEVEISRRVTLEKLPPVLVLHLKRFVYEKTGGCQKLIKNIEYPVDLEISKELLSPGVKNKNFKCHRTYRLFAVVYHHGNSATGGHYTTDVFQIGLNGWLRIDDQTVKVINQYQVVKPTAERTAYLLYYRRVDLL

SMILES	IC50
CCOc1ccc2c(c1)c(=O)c(C(=O)c1ccc(F)cc1)cn2CC(=O)Nc1ccccc1	> 40 µM (inactive)
O=c1c2ccccc2nc(/C=C/c2ccco2)n1Cc1ccccc1	> 40 µM (inactive)
Cc1ccc2c(CNCCC3=CCCCC3)c(C(=O)O)n(C)c2c1	> 40 µM (inactive)
Cc1cccc(-n2ccnc(SCC(=O)Nc3ccc(Cl)cc3F)c2=O)c1	16.1 µM
Cc1cccc(OCCn2c(CCNC(=O)C3CCCCC3)nc3ccccc32)c1	16.3 µM
O=c1cc(Cc2ccccc2)nc2c(-c3ccccc3)c(COc3ccccc3)[nH]n12	inactive
COc1ccc(NC(=O)CC(=O)c2ccc([N+](=O)[O-])cc2)cc1S(=O)(=O)Nc1ccc(Cl)cc1	25.8 µM
CCOc1ccc2c(c1)c(=O)c(C(=O)c1ccccc1)cn2CC(=O)Nc1ccc2c(c1)OCCO2	22.5 µM
COC(=O)Nc1cccn(Cc2c(Cl)cccc2Cl)c1=O	> 40 µM (inactive)
Cc1ccc(NCc2cc3c(-c4cccc(F)c4)nn(-c4ccccc4)c3[nH]c2=O)cc1C	> 40 µM (inactive)
CS(=O)(=O)NC1CCCN(C(=O)Nc2cccc3ccccc23)C1 (stereo unspecified)	> 40 µM (inactive)
Cc1ccc(C(=O)c2cn(CC(=O)Nc3ccccc3)c3ccc(C)cc3c2=O)cc1	> 40 µM (inactive)
Cn1c(=O)c(-c2ccc(C(=O)NCc3cccc(Cl)c3)cc2)nc2cccnc21	> 40 µM (inactive)
Cc1nn(-c2ccccc2)c2c1nc(CCC(=O)NC1CCCCC1)c(=O)n2C	> 40 µM (inactive)
Cc1cc(C(F)(F)F)n2nc(C3CCN(C(=O)c4cnn(C)c4C)C3)cc2n1 (stereo unspecified)	> 40 µM (inactive)
O=C1CC(O)C(O)c2cccc(O)c21 (stereo unspecified)	> 40 µM (inactive)
CC(C)(C)c1ccc(C2CC(=O)C3=C(C2)Nc2ccccc2N(C(=O)CCC(=O)O)C3c2cccc([N+](=O)[O-])c2)cc1 (stereo unspecified)	> 40 µM (inactive)
CCC(=O)Nc1nc2cc(NC(=O)Nc3ccccc3Cl)ccc2s1	> 40 µM (inactive)
O=C(Nc1ccccc1C(F)(F)F)c1cccc(S(=O)(=O)Nc2cc(C(F)(F)F)ccc2Cl)c1	> 40 µM (inactive)
O=C(/C=C/c1c(F)cccc1Cl)N1CCc2ccccc2C1	> 40 µM (inactive)
CCN(c1ccc(NC(=O)CSc2nnc(-c3ccccc3)n2-c2ccc(OC)c(OC)c2)cc1)C(C)C	> 40 µM (inactive)

SMILES	IC50
O=C(NCc1ccccc1)Nc1cccc2ccccc12	> 40 µM (inactive)
CCOc1ccc2cc3c(nc2c1)OC(=O)N(Cc1ccc(OC)cc1)C3	5.74 µM
O=C(CCCn1c(=O)c2sccc2n(CC(=O)NCCC2=CCCCC2)c1=O)NCc1ccc2c(c1)OCO2	13.8 µM
CCc1ccc(NC(=O)CSc2nc3nccnc3c(=O)n2Cc2ccc(F)cc2)cc1	> 40 µM (inactive)
COc1ccc(Cl)cc1NC(=O)CSc1ncnc2nc[nH]c12	37.9 µM
O=C(Nc1ccccc1-c1nc2ccccc2[nH]1)c1sc2ccccc2c1Cl	9.23 µM
Cc1cc(Nc2cccc(Cl)c2)n2nc(-c3cccnc3)nc2n1	> 40 µM (inactive)
Fc1ccccc1-c1nc2c3cnn(-c4ccccc4)c3ncn2n1	> 40 µM (inactive)
COc1ccc(-c2nc(-c3nnn(Cc4ccc(F)cc4)c3C)no2)c(OC)c1	> 40 µM (inactive)
COc1ccc(COc2ccc3c(C)c(CC(=O)N4CC[C@@]5(O)CCCC[C@H]5C4)c(=O)oc3c2)cc1	> 40 µM (inactive)
Cc1ccc(C)c(Cn2cnc3c(nnn3-c3cccc(F)c3)c2=O)c1	> 40 µM (inactive)
Cc1cccc(C)c1NC(=O)CN1C(=O)CC(c2ccccc2)=Nc2ccccc21	26.4 µM
Cc1cc(=O)[nH]c(NC2CCN(S(=O)(=O)c3ccccc3C(F)(F)F)CC2)n1	> 40 µM (inactive)
Cc1cc(C(=O)NC2(O)C(=O)c3ccccc3C2=O)n(C)n1	14.2 µM
O=C(Cn1cc(C(=O)c2ccccc2)c(=O)c2cc(F)ccc21)Nc1ccc2c(c1)OCCO2	> 40 µM (inactive)
O=C(c1cccc2ncccc12)N1CCN(c2ccnc3cc(Cl)ccc23)CC1	> 40 µM (inactive)
Cc1nc(SCC(=O)NC(C)c2ccccc2)c2oc3ccccc3c2n1 (stereo unspecified)	> 40 µM (inactive)
COc1cccc(C(=O)Nc2ccc(SC(C(=O)Nc3ccccc3)c3ccccc3)cc2)c1 (stereo unspecified)	> 40 µM (inactive)
CC(=O)Nc1ccc(S(=O)(=O)NCc2ccc(C(=O)NCCc3ccc(Cl)cc3)cc2)cc1	> 40 µM (inactive)
CCc1nc(SCC(=O)Nc2cc(Cl)ccc2C)c2oc3ccccc3c2n1	1.14 µM
O=C1CC(C(=O)Nc2ccc3c(c2)OCO3)n2nc(SCc3ccccc3)nc2N1 (stereo unspecified)	> 40 µM (inactive)

SMILES	IC50
O=C(COc1ccc(N2CC(C(=O)NCc3ccc4c(c3)OCO4)CC2=O)cc1)Nc1ccc(F)cc1 (stereo unspecified)	20.8 µM
Cc1ccccc1NC(=O)Cn1ccc2ccn(Cc3ccccc3)c2c1=O	> 40 µM (inactive)
Cc1ccc(Nc2nc3c(S(=O)(=O)c4ccccc4)nnn3c3ccccc23)c(C)c1	> 40 µM (inactive)
Cc1ccc(C(=O)c2cn(CC(=O)Nc3ccc(F)c(F)c3)c3ccc(F)cc3c2=O)cc1	> 40 µM (inactive)
O=c1c(O)c(-c2ccc(O)c(O)c2)oc2cc(O)cc(O)c12	1.16 µM
COc1ccc2[nH]c(=O)c(CN(C)C(=O)c3ccc([N+](=O)[O-])cc3)cc2c1	> 40 µM (inactive)
O=C(Cn1c(=O)n(-c2ccc(Cl)cc2)c(=O)c2c3c(sc21)CCCC3)NCC1CCCO1 (stereo unspecified)	> 40 µM (inactive)
CCCc1nnc(NC(=O)c2cc(-c3ccccc3O)n[nH]2)s1	> 40 µM (inactive)
COc1ccc(CNC(=O)Cn2c(=O)[nH]c3c(-c4ccccc4F)c[nH]c3c2=O)cc1	> 40 µM (inactive)
CC(C)=CCC/C(C)=C/COc1ccc(/C=C2\C(=O)N(O)[C@@H](C)C(=O)N2O)cc1	14.5 µM
O=C(COC(=O)c1cccc([N+](=O)[O-])c1)Nc1cccc(Oc2ccccc2)c1	> 40 µM (inactive)
COc1ccc2c(c1)CCc1c-2nc2ccccc2c1N1CCOCC1	> 40 µM (inactive)
Cc1ccc(-c2nn(C(C)(C)C)c3ncnc(NS(=O)(=O)c4ccc(Cl)cc4)c23)cc1	> 40 µM (inactive)
O=C(NCc1ccc(Br)cc1)c1cc(-c2cccnc2)n[nH]1	> 40 µM (inactive)
CN1C(=O)COc2cc(-c3noc(C(=O)NCc4ccc(F)cc4)n3)ccc21	24.9 µM
CCOc1ccc(-n2c(SCC(=O)Nc3ccc(C)cc3)nnc2-c2c[nH]c3ccccc23)cc1	8.92 µM
CNc1ncc(C(=O)N2CCOC(C(=O)N3CCCCCC3)C2)cn1 (stereo unspecified)	> 40 µM (inactive)
Cc1ccc(NC(=O)Cn2cncc(-c3nc(-c4ccccc4)cs3)c2=O)cc1F	22.9 µM
COc1ccc(-c2nc(Cn3nnc(C(=O)Nc4ccc(C)c(C)c4)c3N)c(C)o2)cc1	29.1 µM

Second part, the compound after the results:

IC50	SMILES
34.6 µM	N#Cc1ccccc1NC(=O)c1cc2c(s1)-c1ccccc1S(=O)(=O)C2
> 40 µM (inactive)	N#Cc1cccc(NC(=O)Nc2cccn(Cc3ccc(F)cc3)c2=O)c1
> 40 µM (inactive)	Cc1cc(C(=O)CSc2nc3ccccc3[nH]2)c(C)n1Cc1ccco1
36.8 µM	O=C(NCCc1nc2ccccc2n1CCOc1ccccc1Cl)C1CCCCC1
> 40 µM (inactive)	COc1ccc(NC(=O)Cn2c(=O)n(Cc3ccco3)c(=O)c3ccc(C(=O)NC4CCCC4)cc32)cc1
> 40 µM (inactive)	COc1cc(OC)c2c(c1)C(=O)C1=C(COC(C)(O)C1)C2=O (stereo unspecified)
> 40 µM (inactive)	Cc1cccc(NC(=O)CSc2nnc(-c3n[nH]c4c3CCC4)n2N)c1C
23.9 µM	Cc1ccc(NC(=O)Cn2cc(C(=O)c3ccccc3)c(=O)c3cc(C)ccc32)cc1
> 40 µM (inactive)	CCc1ccc([C@@H]2c3c(C)nn(C)c3NC(=O)[C@H]2NC(=O)c2ccc(OC)c(OC)c2)cc1
30.6 µM	CCCCCCCCCC(CCCCCCCCCC(=O)O)O[C@H]1O[C@@H](COC(C)=O)[C@H](O)[C@@H](OC(=O)CC(=O)O)[C@H]1O (stereo partly specified)
> 40 µM (inactive)	CC1NC(=O)C(CC(N)=O)NC(=O)C(C(C)O)NC(=O)C(Cc2ccc(O)cc2)NC(=O)C(C(C)C)NC(=O)C(NC(=O)CC(O)CCCCCCCCCCCCN=C(N)N)C(C)OC1=O (stereo unspecified) ({Pentadecanoyl(3ξ-OH,15-Gua)}-TVYTNA; ester 1-C; configuration not given here)
> 40 µM (inactive)	Cc1ccc(C2c3[nH]c4ccccc4c3C[C@H]3C(=O)N(c4ccc(C(=O)NCCc5ccccc5)cc4)C(=O)N23)cc1 (stereo partly specified)
> 40 µM (inactive)	COc1ccc(C(=O)Nc2nc(-c3ccc4c(c3)NC(=O)CO4)c(C)s2)cc1OC
> 40 µM (inactive)	O=C(Cn1ncc2c(=O)oc3ccccc3c21)NCc1ccc2c(c1)OCO2
28.9 µM	COc1cc(OC)c(NC(=O)c2cc(-c3ccccn3)n[nH]2)cc1Cl
39 µM	O=c1[nH]c2ccc(S(=O)(=O)Nc3ccc(O)c4ccccc34)cc2[nH]1
> 40 µM (inactive)	COc1ccc2nc(N3CC(C(=O)Nc4ccc(C(N)=O)cc4)C3)sc2c1
6.82 µM	Cc1nc(C(=O)NC2(O)C(=O)c3ccccc3C2=O)cs1
> 40 µM (inactive)	Cc1cccc(-c2nnn3c2nc(NCC2CCCO2)c2ccccc23)c1 (stereo unspecified)
> 40 µM (inactive)	CC(=O)c1ccc(N2CCN(S(=O)(=O)c3cc4c(cc3C)NC(=O)CO4)CC2)cc1
37.9 µM	CC(NC(=O)c1ccccc1)c1nc2ccccc2n1CC(=O)Nc1ccc(OC(F)(F)F)cc1 (stereo unspecified)
> 40 µM (inactive)	O=C(c1ccc(Cl)cc1)N(c1ccccn1)C1CCCCC1
> 40 µM (inactive)	CCN(Cc1ccccc1)C(=O)C1CCN(Cc2ccc(OC)c(OC)c2OC)CC1
34.1 µM	Cc1cccc(N2C(=O)/C(=C\c3cc(C#N)n(C)c3C)c3ccccc3C2=O)c1
> 40 µM (inactive)	COCCCN1CCS(=O)(=O)c2c(Cl)c(F)nc(Oc3ccc(C#N)cc3)c21
36.7 µM	COc1ccc(CC(=O)Nc2ccccc2-c2nc3ccccc3[nH]2)cc1OC
> 40 µM (inactive)	O=C(CCSc1ccc(Cl)cc1)c1cccs1
> 40 µM (inactive)	COc1ccccc1Nc1ncc(C(=O)NCc2ccc(F)cc2)c2ccccc12
> 40 µM (inactive)	COC(=O)c1ccc2c(=O)n(CCCCCC(=O)NCCc3ccc(OC)c(OC)c3)c(=O)[nH]c2c1
> 40 µM (inactive)	COc1ccc(NC(=O)Cn2c(=O)n(CCC(=O)NCc3ccccc3)c(=O)c3sccc32)cc1Cl
